The source of these data is patent US10308689B2, “Dengue virus (DV) polypeptide sequences, T cell epitopes and methods and uses thereof” (LA JOLLA INSTITUTE FOR ALLERGY AND IMMUNOLOGY, priority 2010, dated 2019).

Ends that are not written are not given here.

The test system of this test is PBMC of healthy adult blood donors from Colombo, Sri Lanka. In words: Ex vivo IFNγ ELISPOT, HLA-matched PBMC of Sri Lankan blood donors. It is filed as cell-based, human. On the set-up: Total Response per epitope: unit not given here. Particulars: for # donors responded: number of donors responding to the epitope; for T cell response [SFC]: ex vivo IFNγ SFC/10^6 PBMC; for # of responders: responding donors, HLA allele(s).

Where [1] appears, read: restricting HLA allele and serotype as given.
Where [2] appears, read: total over responding donors, restricting HLA allele and serotype as given.
Where [3] appears, read: IFNγ ELISPOT response summed over responding donors, per epitope.
Where [4] appears, read: HLA-matched PBMC, proteome-wide screen.
The mark [5] stands for this setting: HLA allele, supertype and serotype.
Where [6] appears, read: summed IFNγ ELISPOT response per epitope, HLA allele and serotype as given.

Turning to `CC[C@H](C)[C@H](N)C(=O)N[C@H](C(=O)N[C@@H](CC(C)C)C(=O)N[C@@H](CC(C)C)C(=O)N[C@@H](CS)C(=O)N[C@@H](CC(C)C)C(=O)N[C@H](C(=O)N1CCC[C@H]1C(=O)N[C@H](C(=O)N[C@H](C(=O)O)C(C)C)[C@@H](C)O)[C@@H](C)CC)[C@@H](C)O`, the “# donors responded” value under setting [1] is listed as 1. Besides, the “Total Response per epitope” value under setting [2] turned out to be 63.3.
In the case of `CSCC[C@H](NC(=O)[C@H](CO)NC(=O)[C@@H]1CCCN1C(=O)[C@@H](N)CCSC)C(=O)N[C@@H](CCCCN)C(=O)N[C@@H](CCCNC(=N)N)C(=O)N[C@@H](Cc1ccccc1)C(=O)N[C@@H](CCCNC(=N)N)C(=O)N[C@@H](CCCNC(=N)N)C(=O)N[C@@H](CCC(=O)O)C(=O)O`, under setting [3], the “Total Response per epitope” value is given as 1336.7. Moreover, the “# donors responded” value under setting [4] amounted to 5.
Consider MVSRLLLNR, for which, under setting [3], the “Total Response per epitope” value amounted to 28.3. Also, the “# donors responded” value under setting [4] is recorded as 1.
In the case of RASFIEVKTC, the “Total Response per epitope” value under setting [3] turned out to be 290.0. For the same molecule, the “# donors responded” value under setting [4] is given as 2.
As for `CC(C)C[C@H](NC(=O)[C@H](CC(C)C)NC(=O)[C@@H](NC(=O)[C@H](C)NC(=O)[C@H](C)N)C(C)C)C(=O)N[C@@H](CC(C)C)C(=O)N[C@H](C(=O)N[C@H](C(=O)N[C@@H](Cc1c[nH]cn1)C(=O)N[C@@H](Cc1ccc(O)cc1)C(=O)O)[C@@H](C)O)C(C)C`, under setting [1], the “# donors responded” value is reported as 2. The “Total Response per epitope” value under setting [2] is on record as 393.3.
In the case of `CC[C@H](C)[C@H](NC(=O)[C@@H](NC(=O)[C@H](CO)NC(=O)[C@@H]1CCCN1C(=O)[C@@H](N)CCSC)C(C)C)C(=O)N[C@@H](CCC(=O)O)C(=O)N[C@@H](CCCCN)C(=O)N[C@@H](CCSC)C(=O)N[C@@H](CCC(=O)O)C(=O)N[C@H](C(=O)O)[C@@H](C)O`, the “Total Response per epitope” value under setting [3] came out at 783.3. Besides, the “# donors responded” value under setting [4] came to 2.
Regarding `CSCC[C@H](NC(=O)[C@H](CCC(=O)O)NC(=O)[C@H](CC(C)C)NC(=O)[C@H](CCCCN)NC(=O)CNC(=O)[C@H](CC(C)C)NC(=O)[C@H](Cc1c[nH]cn1)NC(=O)[C@H](Cc1c[nH]c2ccccc12)NC(=O)[C@@H]1CCCN1C(=O)CN)C(=O)O`, the “# donors responded” value under setting [1] is 3. Further, the “Total Response per epitope” value under setting [2] was 90.0.
The matching figures for GFFLRKLTSR: 1 and 81.7.
With `CC[C@H](C)[C@H](NC(=O)[C@@H](NC(=O)[C@H](CC(=O)O)NC(=O)[C@H](CCSC)NC(=O)[C@@H](NC(=O)[C@H](C)NC(=O)CNC(=O)[C@H](CCCCN)NC(=O)[C@@H]1CCCN1C(=O)[C@@H](N)[C@@H](C)O)C(C)C)[C@@H](C)CC)C(=O)O`, under setting [5], the “# donors responded” value is 1. The “Total Response per epitope” value under setting [6] was 105.0.
Turning to `CC[C@H](C)[C@H](N)C(=O)N[C@@H](CCC(N)=O)C(=O)N1CCC[C@H]1C(=O)N[C@@H](Cc1ccccc1)C(=O)N[C@@H](CC(C)C)C(=O)N[C@@H](C)C(=O)N[C@@H](CC(C)C)C(=O)NCC(=O)N[C@@H](Cc1ccccc1)C(=O)O`, under setting [1], the “# donors responded” value was found to be 1. Also, under setting [2], the “Total Response per epitope” value was 85.0.
`CSCC[C@H](NC(=O)[C@@H](NC(=O)[C@H](Cc1ccc(O)cc1)NC(=O)[C@H](CO)NC(=O)[C@@H](N)CCSC)[C@@H](C)O)C(=O)N[C@@H](CS)C(=O)N[C@@H](CO)C(=O)NCC(=O)N[C@@H](CCCCN)C(=O)O`: the “Total Response per epitope” value under setting [3] turned out to be 23.3. In addition, under setting [4], the “# donors responded” value was found to be 1.
With `CC[C@H](C)[C@H](NC(=O)[C@H](C)NC(=O)[C@H](CC(C)C)NC(=O)[C@H](CS)NC(=O)[C@H](CC(C)C)NC(=O)[C@@H](NC(=O)CNC(=O)[C@H](CCSC)NC(=O)[C@@H](NC(=O)[C@@H](N)Cc1ccccc1)[C@@H](C)O)C(C)C)C(=O)O`, under setting [1], the “# donors responded” value stood at 1. Moreover, the “Total Response per epitope” value under setting [2] was 58.3.
NPNMIDKTPV: the “Total Response per epitope” value under setting [3] is reported as 376.7. Also, the “# donors responded” value under setting [4] is listed as 2.
MPVTVASAAQ: the “Total Response per epitope” value under setting [3] came out at 51.7. For the same molecule, the “# donors responded” value under setting [4] was 1.
With FAGPVSQHNY, under setting [1], the “# donors responded” value turned out to be 3. Besides, the “Total Response per epitope” value under setting [2] is reported as 428.3.
On to EPISYDPKF, for which the “# donors responded” value under setting [1] is 1. For the same molecule, the “Total Response per epitope” value under setting [2] is 340.0.
The matching figures for `CC[C@H](C)[C@H](N)C(=O)NCC(=O)N[C@H](C(=O)NCC(=O)N[C@H](C(=O)N[C@@H](CC(C)C)C(=O)N[C@@H](CC(C)C)C(=O)N[C@H](C(=O)N[C@@H](Cc1c[nH]c2ccccc12)C(=O)O)[C@@H](C)O)[C@@H](C)CC)[C@@H](C)CC`: 1 and 525.0.
For `CC(C)[C@H](NC(=O)[C@H](C)NC(=O)[C@@H](N)CCC(=O)O)C(=O)N[C@@H](CCC(=O)O)C(=O)N[C@@H](CC(=O)O)C(=O)N[C@@H](CO)C(=O)N[C@@H](CCCNC(=N)N)C(=O)N[C@@H](Cc1ccccc1)C(=O)N[C@@H](Cc1c[nH]c2ccccc12)C(=O)N[C@@H](CCC(=O)O)C(=O)O` the same measures were 1 and 248.3.
The matching figures for `CC[C@H](C)[C@H](N)C(=O)N1CCC[C@H]1C(=O)N[C@@H](Cc1ccccc1)C(=O)N[C@@H](CCC(=O)O)C(=O)N[C@H](C(=O)N[C@@H](CCSC)C(=O)N[C@@H](CC(=O)O)C(=O)N[C@@H](CC(C)C)C(=O)N[C@@H](CCC(=O)O)C(=O)N[C@@H](CCCCN)C(=O)O)[C@@H](C)CC`: 5 and 1500.0.
With IETTILDVDL, under setting [3], the “Total Response per epitope” value turned out to be 1413.3. Besides, under setting [4], the “# donors responded” value amounted to 2.
As for IANOATVLM, the “# of responders” value is given as 7. For the same molecule, for the setting “per epitope”, the “T cell response [SFC]” value came out at 1518 SFC.
On to `C[C@H](NC(=O)[C@H](CCCNC(=N)N)NC(=O)CNC(=O)CNC(=O)[C@H](C)NC(=O)[C@H](CCC(=O)O)NC(=O)[C@H](C)NC(=O)[C@@H](N)[C@@H](C)O)C(=O)N[C@@H](Cc1ccc(O)cc1)C(=O)O`, for which the “Total Response per epitope” value under setting [3] worked out at 371.7. In addition, under setting [4], the “# donors responded” value is listed as 4.
Take REDLWCGSL: under setting [3], the “Total Response per epitope” value is 96.7. The “# donors responded” value under setting [4] is listed as 1.
In the case of `C[C@H](NC(=O)[C@@H](N)Cc1c[nH]c2ccccc12)C(=O)N[C@@H](Cc1ccc(O)cc1)C(=O)N[C@@H](Cc1c[nH]cn1)C(=O)NCC(=O)N[C@@H](CO)C(=O)N[C@@H](Cc1ccc(O)cc1)C(=O)N[C@@H](CCC(=O)O)C(=O)N[C@H](C(=O)O)[C@@H](C)O`, under setting [5], the “# donors responded” value amounted to 3. Besides, under setting [6], the “Total Response per epitope” value amounted to 1220.0.
On to TLMAMDLGEL, for which the “Total Response per epitope” value under setting [3] was 823.3. Under setting [4], the “# donors responded” value came out at 1.
Take `CC[C@H](C)[C@H](NC(=O)[C@H](C)NC(=O)[C@H](Cc1ccc(O)cc1)NC(=O)[C@H](Cc1c[nH]cn1)NC(=O)[C@@H](NC(=O)[C@@H](NC(=O)[C@H](CC(C)C)NC(=O)[C@H](CC(C)C)NC(=O)[C@H](CC(C)C)NC(=O)[C@@H](N)C(C)C)C(C)C)[C@@H](C)O)C(=O)O`: under setting [5], the “# donors responded” value came to 1. Under setting [6], the “Total Response per epitope” value is 40.0.
As for `CSCC[C@H](NC(=O)[C@H](CC(C)C)NC(=O)[C@H](CO)NC(=O)[C@H](Cc1c[nH]c2ccccc12)NC(=O)[C@H](CCSC)NC(=O)[C@H](CCC(N)=O)NC(=O)[C@H](C)NC(=O)[C@@H](N)Cc1ccc(O)cc1)C(=O)N[C@@H](Cc1ccc(O)cc1)C(=O)O`, the “Total Response per epitope” value under setting [3] is on record as 38.3. Besides, the “# donors responded” value under setting [4] is on record as 1.
Take TTKRDLGMSK: the “# donors responded” value under setting [5] came to 1. Further, under setting [6], the “Total Response per epitope” value was 35.0.
With `CSCC[C@H](NC(=O)[C@H](CC(C)C)NC(=O)[C@@H](NC(=O)[C@H](CCC(=O)O)NC(=O)[C@@H](N)CC(C)C)[C@@H](C)O)C(=O)N[C@@H](CC(C)C)C(=O)N[C@H](C(=O)N[C@@H](C)C(=O)N[C@@H](CC(C)C)C(=O)O)C(C)C` [LETLMLVAL], the “Total Response per epitope” value under setting [3] is given as 103.3. Also, the “# donors responded” value under setting [4] is 1.
Regarding `CC[C@H](C)[C@H](NC(=O)[C@@H](NC(=O)[C@@H]1CCCN1C(=O)[C@@H](N)CO)[C@@H](C)CC)C(=O)N[C@@H](CC(N)=O)C(=O)N[C@@H](CCCNC(=N)N)C(=O)N[C@@H](CCC(=O)O)C(=O)NCC(=O)N[C@@H](CCCCN)C(=O)N[C@H](C(=O)O)C(C)C`, under setting [3], the “Total Response per epitope” value was 106.7. For the same molecule, the “# donors responded” value under setting [4] is 1.
With SPKRLATAIA, the “Total Response per epitope” value under setting [3] amounted to 68.3. Also, the “# donors responded” value under setting [4] amounted to 1.
For the molecule `CC(C)C[C@H](NC(=O)[C@H](CC(C)C)NC(=O)[C@H](CC(C)C)NC(=O)[C@@H](NC(=O)[C@H](CCC(=O)O)NC(=O)[C@H](CC(C)C)NC(=O)[C@@H](NC(=O)[C@H](CCC(=O)O)NC(=O)[C@@H]1CCCN1C(=O)[C@@H](N)CC(C)C)[C@@H](C)O)[C@@H](C)O)C(=O)O`, the “Total Response per epitope” value under setting [3] is 296.7. Moreover, under setting [4], the “# donors responded” value is 4.
Turning to `CC[C@H](C)[C@H](NC(=O)[C@H](C)NC(=O)[C@H](C)NC(=O)[C@H](CCSC)NC(=O)[C@@H](NC(=O)[C@@H](N)[C@@H](C)O)[C@@H](C)CC)C(=O)N[C@@H](CC(C)C)C(=O)N[C@@H](C)C(=O)N[C@@H](Cc1ccc(O)cc1)C(=O)O`, the “# donors responded” value under setting [1] is given as 1. The “Total Response per epitope” value under setting [2] is 20.0.
For the molecule TPFGIIPAL, the “# of responders” value came to 1.
With `CC[C@H](C)[C@H](NC(=O)[C@@H]1CCCN1C(=O)[C@H](CCC(=O)O)NC(=O)[C@H](CCC(=O)O)NC(=O)[C@H](Cc1c[nH]cn1)NC(=O)CNC(=O)[C@@H]1CCCN1C(=O)CN)C(=O)N1CCC[C@H]1C(=O)N[C@@H](CCSC)C(=O)O`, the “# donors responded” value under setting [1] is 3. For the same molecule, the “Total Response per epitope” value under setting [2] stood at 235.0.
In the case of FTILALFLAH, the “# of responders” value was determined as 8. The “# donors responded” value under setting [1] is listed as 8. In addition, the “T cell response [SFC]” value (per epitope) is given as 1715 SFC. For the same molecule, under setting [2], the “Total Response per epitope” value came out at 1715.0.
As to LATGPVLTLW, the “# of responders” value is listed as 1. Moreover, the “# donors responded” value under setting [1] worked out at 1. In addition, the “T cell response [SFC]” value (per epitope) stood at 745 SFC. The “Total Response per epitope” value under setting [2] stood at 745.0.
